Results on 15 compounds are retold here after patent US6495566B2, “Tetrahydroquinoline derivatives as glycine antagonists” (Smithkline Beecham Corporation, priority 1998, dated 2002).

Broadly, the Ki is a dissociation constant, usually derived from enzyme kinetics or from competition with a known ligand. What is called melting point is the temperature of the solid-liquid transition.

The target of the first data set is T1, strychnine insensitive glycine binding site associated with the NMDA receptor complex (Rattus norvegicus, UniProt P35439).
T1 construct: from tissue
Briefly: affinity for the strychnine insensitive glycine binding site (procedure of Kishimoto H. et al).
Details: not given
The protocol:
Thus the ability to bind at the strychnine insensitive glycine binding site was determined using the procedure of Kishimoto H et al., J Neurochem 1981, 37, 1015-1024.
The affinity of the compound of the invention for the strychnine insensitive glycine binding site was determined using procedure of Kishimoto H. et al […].
Regarding `O=C(O)C1CC(C2=CCN(c3ccccc3)C2=O)c2ccc(Cl)cc2N1` (racemic) [Example 1, (±)Sodium 7-chloro-4-(1-phenyl-Δ^3-pyrrolin-2-one-3yl)-1,2,3,4-tetrahydroquinoline-2-carboxylate], the Ki is […].

With `O=C(O)C1CC(C2=CCN(c3cccnc3)C2=O)c2ccc(Cl)cc2N1` (racemic) [Example 14, (±)-Sodium 7-chloro-4-(1-(3-pyridin)-Δ^3-pyrrolin-2-one-3yl)-1,2,3,4-tetrahydroquinoline-2-carboxylate], the Ki was 12.6 nM.

Consider `O=C(O)C1CC(C2=CCCN(c3ccccc3)C2=O)c2ccc(Cl)cc2N1` (racemic) [Example 15, (±)-Sodium 7-chloro-4-(1-phenyl-Δ^3-5,6-dihydro-pyridin-2-one-3yl)-1,2,3,4-tetrahydroquinoline-2-carboxylate], for which the affinity corresponds to a Ki of 18.6 nM.

For `O=C(O)C1CC(C2=CCN(c3ccccc3)C2=O)c2c(Cl)cc(Cl)cc2N1` (racemic) [Example 16, (±)-Sodium 5,7-dichloro-4-(1-phenyl-Δ^3-pyrrolin-2-one-3yl)-1,2,3,4-tetrahydroquinoline-2-carboxylate], the affinity, expressed as Ki, was 15.8 nM.

As to `CC(=O)Nc1ccc(N2CC=C(C3CC(C(=O)O)Nc4cc(Cl)ccc43)C2=O)cc1` (racemic) [Example 18, (+/−)-7-chloro-4-(1-(4-acetylamino)-phenyl-Δ^3-pyrrolin-2-one-3yl)-1,2,3,4-tetrahydroquinoline-2-carboxylic acid], the affinity, expressed as Ki, was 16.6 nM.

`CS(=O)(=O)Nc1ccc(N2CC=C(C3CC(C(=O)O)Nc4cc(Cl)ccc43)C2=O)cc1` (racemic) [Example 19, (+/−)7-chloro-4-(1-(4-methanesulfonylamino)-phenyl-1-Δ^3-pyrrolin-2-one-3yl)-1,2,3,4-tetrahydroquinoline-2-carboxylic acid] had an inhibition constant Ki of 1.26 nM.

`O=C(O)C1CC(=C2CCN(c3cccnc3)C2=O)c2ccc(Cl)cc2N1` (racemic) [Example 22, (±)-Sodium 7-chloro-4-(2-oxo-1-(pyridn-3yl)-pyrrolidin-3-ylidene)-1,2,3,4-tetrahydro-2-quinolinecarboxylate] showed a Ki of 12.6 nM.

Regarding `O=C(O)C1CC(=C2NC(=O)N(c3ccccc3)C2=O)c2ccc(Cl)cc2N1` (racemic) [Example 24, (±)-7-chloro-4-(2,5-dioxo-1-phenyl-imidazolidin-4-ylidene)-1,2,3,4-tetrahydro-2-quinolinecarboxylic acid], the inhibition constant (Ki) was 15.8 nM.

For `CC(=O)Nc1ccc(N2CCC(=C3CC(C(=O)O)Nc4cc(Cl)ccc43)C2=O)cc1` (racemic) [Example 25, (+/−)-7-chloro-4-(2-oxo-1-(4-acetylamino)phenyl-pyrrolidin-3-ylidene)-1,2,3,4-tetrahydro-2-quinolinecarboxylic acid], the inhibitory constant (Ki) worked out at 70.8 nM.

With `O=C(O)C1CC(C2=CCN(c3ccccc3)C2=O)c2ccc(Cl)cc2N1` (single isomer, unassigned; (+)) [Example 17, (+)Sodium7-chloro-4-(1-phenyl-Δ^3pyrrolin-2-one-3yl)-1,2,3,4-tetrahydroquinoline-2-carboxylate], the inhibitory constant (Ki) is […].

The compound `O=C(O)C1CC(C2=CCN(c3ccccc3)C2=O)c2c(Cl)cc(Cl)cc2N1` (stereo not shown) [Example 29, Sodium, 5,7-Dichloro-4-(2-oxo-1-phenyl-Δ^3-pyrrolin-2-one-3-yl)-1,2,3,4-tetrahydro-quinoline-2-carboxylic acid; (enatiomer A)] showed an inhibition constant (Ki) of 2 nM.

Take `O=C(O)C1CC(=C2CCN(c3ccccc3)C2=O)c2c(Cl)cc(Cl)cc2N1` (stereo not shown) [Example 30, Sodium 5,7-dichloro-4-(2-oxo-(1-phenyl)pyrrolidin-3-ylidene)-1,2,3,4-tetrahydro-2-quinoline carboxylate(enatiomer A)]: the inhibition constant (Ki) was 20 nM.

Another data set concerns formalin-induced pain. The experiment in a line: formalin test in mouse (licking time of injected paw). Type of data set: in vivo. Particulars: administered orally 1 hour before formalin injection. Here is the method: The ability of compounds of the invention to inhibit pain in mouse has been assessed in the formalin test as described by Dubuisson and Dennis (Pain, 1977, 4:161-174). In this test 20 μl of 1% formalin was injected into the plantar surface of the mouse left hind paw. The amount of time, in seconds, the animals spent licking the injected paw for the first 5 minutes (early phase) and then from 20 to 60 minutes (late phase) after formalin was used as measurement of the intensity of pain. The compounds of the invention were administered orally 1 hour before formalin injection.
Turning to `O=C(O)C1CC(C2=CCN(c3ccccc3)C2=O)c2ccc(Cl)cc2N1` (single isomer, unassigned; (+)) [Example 17, (+)Sodium7-chloro-4-(1-phenyl-Δ^3pyrrolin-2-one-3yl)-1,2,3,4-tetrahydroquinoline-2-carboxylate], the “ED50 (dose required to reduce the licking time by 50%)” value is 0.3 mg/kg po.

For the compound `O=C([O-])C1CC(C2=CCN(c3ccccc3)C2=O)c2ccc(Cl)cc2N1.[Na+]` (single isomer, unassigned; (-)) [Example 2, (−)-Sodium 7-chloro-4-(1-phenyl-Δ^3-pyrrolin-2-one-3yl)-1,2,3,4-tetrahydroquinoline-2-carboxylate], the “ED50 (dose required to reduce the licking time by 50%)” value was determined as 0.03 mg/kg po.

Consider `O=C([O-])C1CC(=C2CCN(c3ccccc3)C2=O)c2ccc(Cl)cc2N1.[Na+]` (single isomer, unassigned; (-)) [Example 21, (−)-Sodium 7-chloro-4-(2-oxo-1-phenyl-3-pyrrolidinylidene)-1,2,3,4-tetrahydro-2-quinolinecarboxylate], for which the “ED50 (dose required to reduce the licking time by 50%)” value worked out at 0.14 mg/kg po.

System in a further data set: not given
Assay: not given
Details: not given
Compound `O=C(O)C1CC(=C2CCCN(c3ccccc3)C2=O)c2ccc(Cl)cc2N1` (racemic) [Example 23, (±)-7-chloro-4-(2-oxo-1-phenyl-3-piperidinylidene)-1,2,3,4-tetrahydro-2-quinolinecarboxylic acid] registered a melting point above 130 °C.
